# Experimental data as given in US10138255B2, “Piperazine derivatives as HIV protease inhibitors” (Merck Sharp & Dohme Corp., priority 2014, dated 2018).
# System: HIV-1 (H9IIIB strain)
# Experiment: Cell-Based HIV Infection Assay Using a Reporter (MT4-GFP cells)
# Conditions: Human immunodeficiency virus 1, inflection point (IP) of viral growth inhibition; MT4-GFP cells infected with HIV-1 H9IIIB; 50% normal human serum; mean of at least two independent experiments; read-out: Cell Based IP (50% NHS)
# How it was run: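 Inflection point from a 4-parameter curve of % viral growth inhibition, normalised to DMSO and triple-drug controls, using the 48 h/24 h ratio of GFP-positive cells (R0). MT4-GFP cells pre-infected 24 h with HIV-1 H9IIIB at low MOI; compounds tested in 50% normal human serum, 0.4% DMSO; mean of ≥2 experiments.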
row,Compound,EC50 [µM]
1,"COC(=O)N[C@H](C(=O)Nc1cccc(F)c1CC[C@H]1CN[C@@H]2CCC(C)(C)S(=O)(=O)N1C2)[C@@H](c1ccc(F)cc1)[C@H]1C[C@@H](C)O[C@@H](C)C1 [Example 102, methyl {(1S)-2-[(2-{2-[(6R,9S)-3,3-dimethyl-2,2-dioxido-2-thia-1,7-diazabicyclo[4.3.1]dec-9-yl]ethyl}-3-fluorophenyl)amino]-1-[(R)-[(2R,4r,6S)-2,6-dimethyltetrahydro-2H-pyran-4-yl](4-fluorophenyl)methyl]-2-oxoethyl}carbamate]",0.032
2,"COC(=O)N[C@H](C(=O)Nc1cccc(F)c1CC[C@H]1CN[C@@H]2CCCS(=O)(=O)N1C2)[C@@H](c1ccc(F)cc1)[C@H]1C[C@@H](OC)C1 [Example 105, methyl [(1S)-2-[(2-{2-[(6R,9S)-2,2-dioxido-2-thia-1,7-diazabicyclo[4.3.1]dec-9-yl]ethyl}-3-fluorophenyl)amino]-1-{(R)-(4-fluorophenyl)[(1s,3S)-3-methoxycyclobutyl]methyl}-2-oxoethyl]carbamate]",0.033
3,"CO[C@H]1C[C@@H]([C@H](c2ccc(F)cc2)[C@H](N)C(=O)Nc2cccc(F)c2CC[C@H]2CN[C@@H]3CCCS(=O)(=O)N2C3)C1 [Example 106, (βR)-N-(2-{2-[(6R,9S)-2,2-dioxido-2-thia-1,7-diazabicyclo[4.3.1]dec-9-yl]ethyl}-3-fluorophenyl)-4-fluoro-β-[(1s,3S)-3-methoxycyclobutyl]-L-phenylalaninamide]",0.11
4,"C[C@@H]1CC([C@H](c2ccc(F)cc2)[C@H](N)C(=O)N[C@H]2CCC[C@@H]2CC[C@H]2CN[C@@H]3CCCS(=O)(=O)N2C3)C[C@H](C)O1 (stereo partly drawn) [Example 107, (βR)-β-[(2R,4s,6S)-2,6-dimethyltetrahydro-2H-pyran-4-yl]-N-[(1S,2R)-2-{2-[(6R,9S)-2,2-dioxido-2-thia-1,7-diazabicyclo[4.3.1]dec-9-yl]ethyl}cyclopentyl]-4-fluoro-L-phenylalaninamide]",0.084
5,"COC(=O)N[C@H](C(=O)N[C@H]1CCC[C@@H]1CC[C@H]1CN[C@@H]2CCCS(=O)(=O)N1C2)[C@@H](c1ccc(F)cc1)C1C[C@@H](C)O[C@@H](C)C1 (stereo partly drawn) [Example 108, methyl [(1S,2R)-2-[(2R,4s,6S)-2,6-dimethyltetrahydro-2H-pyran-4-yl]-1-{[(1S,2R)-2-{2-[(6R,9S)-2,2-dioxido-2-thia-1,7-diazabicyclo[4.3.1]dec-9-yl]ethyl}cyclopentyl]carbamoyl}-2-(4-fluorophenyl)ethyl]carbamate]",0.05
6,"COC(=O)N[C@H](C(=O)Nc1cccc(F)c1CC[C@H]1CN[C@@H]2CCC(C)S(=O)(=O)N1C2)[C@@H](c1ccc(F)cc1)C1C[C@@H](C)O[C@@H](C)C1 (stereo partly drawn) [Example 109, methyl [(1S,2R)-2-[(2R,6S)-2,6-dimethyltetrahydro-2H-pyran-4-yl]-1-[(3-fluoro-2-{2-[(6R,9S)-3-methyl-2,2-dioxido-2-thia-1,7-diazabicyclo[4.3.1]dec-9-yl]ethyl}phenyl)carbamoyl]-2-(4-fluorophenyl)ethyl]carbamate]",0.038
7,"CC1CC[C@@H]2CN([C@@H](CCc3c(F)cccc3NC(=O)[C@@H](N)[C@@H](c3ccc(F)cc3)C3C[C@@H](C)O[C@@H](C)C3)CN2)S1(=O)=O (stereo partly drawn) [Example 110, (βR)-β-[(2R,6S)-2,6-dimethyltetrahydro-2H-pyran-4-yl]-4-fluoro-N-(3-fluoro-2-{2-[(6R,9S)-3-methyl-2,2-dioxido-2-thia-1,7-diazabicyclo[4.3.1]dec-9-yl]ethyl}phenyl)-L-phenylalaninamide]",0.055
8,"COC(=O)N[C@H](C(=O)Nc1cccc(F)c1CC[C@H]1CN[C@@H]2CCCS(=O)(=O)N1C2)[C@@H](c1ccc(F)cc1)C1C[C@@H](C)O[C@H](C)C1 (stereo partly drawn) [Example 112, methyl [(1S,2R)-2-[(2R,6R)-2,6-dimethyltetrahydro-2H-pyran-4-yl]-1-[(2-{2-[(6R,9S)-2,2-dioxido-2-thia-1,7-diazabicyclo[4.3.1]dec-9-yl]ethyl}-3-fluorophenyl)carbamoyl]-2-(4-fluorophenyl)ethyl]carbamate]",0.042
9,"C[C@@H]1CC([C@H](c2ccc(F)cc2)[C@H](N)C(=O)Nc2cccc(F)c2CC[C@H]2CN[C@@H]3CCCS(=O)(=O)N2C3)C[C@@H](C)O1 (stereo partly drawn) [Example 113, (βR)-β-[(2R,6R)-2,6-dimethyltetrahydro-2H-pyran-4-yl]-N-(2-{2-[(6R,9S)-2,2-dioxido-2-thia-1,7-diazabicyclo[4.3.1]dec-9-yl]ethyl}-3-fluorophenyl)-4-fluoro-L-phenylalaninamide]",0.022
10,"COC(=O)N[C@H](C(=O)Nc1cccc(F)c1CCC1CNC2CCCS(=O)(=O)N1C2)[C@@H](c1ccc(Cl)cc1)c1cncc(C(C)(F)F)c1 (stereo partly drawn) [Example 114, methyl [(1S,2S)-2-(4-chlorophenyl)-2-[5-(1,1-difluoroethyl)pyridin-3-yl]-1-({2-[2-(2,2-dioxido-2-thia-1,7-diazabicyclo[4.3.1]dec-9-yl)ethyl]-3-fluorophenyl}carbamoyl)ethyl]carbamate]",0.022
11,"COC(=O)N[C@H](C(=O)Nc1cccc(F)c1CCC1CNC2CCCS(=O)(=O)N1C2)[C@@H](c1ccc(Cl)cc1)c1ccc(C(C)(F)F)nc1 (stereo partly drawn) [Example 116, methyl [(1S,2S)-2-(4-chlorophenyl)-2-[6-(1,1-difluoroethyl)pyridin-3-yl]-1-({2-[2-(2,2-dioxido-2-thia-1,7-diazabicyclo[4.3.1]dec-9-yl)ethyl]-3-fluorophenyl}carbamoyl)ethyl]carbamate]",0.018
12,"COC(=O)N[C@H](C(=O)Nc1cccc(F)c1CC[C@H]1CN[C@@H]2CCCS(=O)(=O)N1C2)[C@@H](c1ccc(F)cc1)[C@H]1CC[C@H](OC)CC1 [Example 117, methyl [(1S)-2-[(2-{2-[(6R,9S)-2,2-dioxido-2-thia-1,7-diazabicyclo[4.3.1]dec-9-yl]ethyl}-3-fluorophenyl)amino]-1-{(R)-(4-fluorophenyl)[(1r,4R)-4-methoxycyclohexyl]methyl}-2-oxoethyl]carbamate]",0.005
13,"CO[C@H]1CC[C@H]([C@H](c2ccc(F)cc2)[C@H](N)C(=O)Nc2cccc(F)c2CC[C@H]2CN[C@@H]3CCCS(=O)(=O)N2C3)CC1 [Example 118, (βR)-N-(2-{2-[(6R,9S)-2,2-dioxido-2-thia-1,7-diazabicyclo[4.3.1]dec-9-yl]ethyl}-3-fluorophenyl)-4-fluoro-β-[(1r,4R)-4-methoxycyclohexyl]-L-phenylalaninamide]",0.0075
14,"C[C@@H]1C[C@H]([C@H](c2ccc(Cl)cc2)[C@H](N)C(=O)Nc2cccc(F)c2CC[C@H]2CN[C@@H]3CCCS(=O)(=O)N2C3)C[C@H](C)O1 [Example 121, (βR)-4-chloro-β-[(2R,4r,6S)-2,6-dimethyltetrahydro-2H-pyran-4-yl]-N-(2-{2-[(6R,9S)-2,2-dioxido-2-thia-1,7-diazabicyclo[4.3.1]dec-9-yl]ethyl}-3-fluorophenyl)-L-phenylalaninamide]",0.0057
15,"COC(=O)N[C@H](C(=O)Nc1cccc(F)c1CCC1CNC2CCCS(=O)(=O)N1C2)[C@@H](c1ccc(Cl)cc1)c1ccnc(OC(C)C)c1 (stereo partly drawn) [Example 122, methyl {(1S,2S)-2-(4-chlorophenyl)-1-({2-[2-(2,2-dioxido-2-thia-1,7-diazabicyclo[4.3.1]dec-9-yl)ethyl]-3-fluorophenyl}carbamoyl)-2-[2-(1-methylethoxy)pyridin-4-yl]ethyl}carbamate]",0.0067
16,"COC(=O)N[C@H](C(=O)Nc1cccc(F)c1CC[C@H]1CN[C@@H]2CCCS(=O)(=O)N1C2)[C@]1(c2ccc(Cl)cc2)CC[C@H](OC)CC1 [Example 125, methyl {(1S)-1-[cis-1-(4-chlorophenyl)-4-methoxycyclohexyl]-2-[(2-{2-[(6R,9S)-2,2-dioxido-2-thia-1,7-diazabicyclo[4.3.1]dec-9-yl]ethyl}-3-fluorophenyl)amino]-2-oxoethyl}carbamate]",0.071
17,"CO[C@H]1CC[C@@](c2ccc(Cl)cc2)([C@H](N)C(=O)Nc2cccc(F)c2CC[C@H]2CN[C@@H]3CCCS(=O)(=O)N2C3)CC1 [Example 126, (2S)-2-amino-2-[cis-1-(4-chlorophenyl)-4-methoxycyclohexyl]-N-(2-{2-[(6R,9S)-2,2-dioxido-2-thia-1,7-diazabicyclo[4.3.1]dec-9-yl]ethyl}-3-fluorophenyl)ethanamide]",0.61
18,"CC1(C)C[C@@H]([C@H](c2ccc(Cl)cc2)[C@H](N)C(=O)N[C@H]2CCCC[C@@H]2CC[C@H]2CN[C@@H]3CCCS(=O)(=O)N2C3)CCO1 [Example 129, (βR)-4-chloro-β-[(4S)-2,2-dimethyltetrahydro-2H-pyran-4-yl]-N-[(1S,2R)-2-{2-[(6R,9S)-2,2-dioxido-2-thia-1,7-diazabicyclo[4.3.1]dec-9-yl]ethyl}cyclohexyl]-L-phenylalaninamide]",0.056
19,"COC(=O)N[C@H](C(=O)N[C@H]1CCCC[C@@H]1CC[C@H]1CN[C@@H]2CCCS(=O)(=O)N1C2)[C@@H](c1ccc(Cl)cc1)[C@@H]1CCOC(C)(C)C1 [Example 131, methyl [(1S,2R)-2-(4-chlorophenyl)-2-[(4R)-2,2-dimethyltetrahydro-2H-pyran-4-yl]-1-{[(1S,2R)-2-{2-[(6R,9S)-2,2-dioxido-2-thia-1,7-diazabicyclo[4.3.1]dec-9-yl]ethyl}cyclohexyl]carbamoyl}ethyl]carbamate]",0.024

# Same assay, conditions: inflection point (IP) of viral growth inhibition; MT4-GFP cells infected with HIV-1 H9IIIB; 50% normal human serum; mean of at least two independent experiments; read-out: Cell Based IP (50% NHS)
row,Compound,EC50 [µM]
1,"COC(=O)N[C@H](C(=O)Nc1cccc(F)c1CC[C@H]1CN[C@@H]2CCCS(=O)(=O)N1C2)[C@@H](c1ccc(Cl)cc1)C1C[C@@H](C)O[C@@H](C)C1 (stereo partly drawn) [Example 120, methyl {(1S,2R)-2-(4-chlorophenyl)-2-[(2R,4r,6S)-2,6-dimethyltetrahydro-2H-pyran-4-yl]-1-[(2-{2-[(6R,9S)-2,2-dioxido-2-thia-1,7-diazabicyclo[4.3.1]dec-9-yl]ethyl}-3-fluorophenyl)carbamoyl]ethyl}carbamate]",0.0062
